Source: patent US20100206809A1, “METHOD AND APPARATUS FOR TREATING ORGANIC MATTER-CONTAINING WATER” (KURITA WATER INDUSTRIES LTD., priority 2007, published 2010)
Values belong to the molecule of their own block, whether it stands above or below them.

Assays:
[1] = Daily change in flux through the RO membrane separator
Procedure: The water that had been subjected to the coagulation-filtration treatment was passed through a fixed-bed activated carbon column at an SV of 20 hr^−1 and then a softening column at an SV of 15 hr^−1. Next, an EDTA-based scale inhibitor (Welclean A801, manufactured by Kurita Water Industries Ltd.) was added in an amount of 10 mg/L (five times the weight of the concentration of calcium ions in softening column-treated water). […] Then the water was passed through an RO membrane separator (with an aromatic-polyamide ultra-low-pressure RO membrane “ES-20”, manufactured by Nitto Denko Corporation) at a permeate flow of 60 L/hr and a recovery rate of 80% to perform RO membrane separation treatment.
Treatment was performed under the same conditions as those in Example 10, except that the pH of the softening column-treated water was adjusted in such a manner that the pH of the RO feed water was 6 (Reference Example 1) or 8.5 (Reference Example 2).
In Example 10, Comparative Example 2, and Reference Examples 1 and 2, daily changes in flux through the RO membrane separator were measured.

viable cells [2] = test: Viable cell counts at measuring points, industrial water treatment (FIG. 1 embodiment)
Procedure: The water that had been subjected to the coagulation-filtration treatment was passed through an activated carbon column at an SV of 20 hr^−1. Then the water was passed through an RO membrane separator (with an aromatic-polyamide ultra-low-pressure RO membrane “ES-20”, manufactured by Nitto Denko Corporation) at a permeate flow of 60 L/hr and a recovery rate of 80%.
In Example 1 and Comparative Example 1, viable cell counts were measured at several points.
In Examples 2 to 5, concentrations of combined chlorine in activated carbon feed water (water fed into the activated carbon column) and activated carbon-treated water (water from the activated carbon column) were measured, and viable cell counts in the activated carbon-treated water were measured.
In Examples 6 to 9, concentrations of combined chlorine and viable cell counts in the activated carbon-treated water were measured.

viable cells [3] = test: Viable cell counts at measuring points, nonionic surfactant-containing wastewater treatment (FIG. 2 embodiment)
Procedure: […] Next, an EDTA-based scale inhibitor (Welclean A801, manufactured by Kurita Water Industries Ltd.) was added in an amount of 10 mg/L (five times the weight of the concentration of calcium ions in softening column-treated water). NaOH was added to adjust the pH to 10.5. Then the water was passed through an RO membrane separator (with an aromatic-polyamide ultra-low-pressure RO membrane “ES-20”, manufactured by Nitto Denko Corporation) at a permeate flow of 60 L/hr and a recovery rate of 80% to perform RO membrane separation treatment.
In Example 10 and Comparative Example 2, viable cell counts were measured at several points.
In Examples 11 to 14, viable cell counts in the activated carbon-treated water and the softened water were measured.
In Examples 15 to 18, viable cell counts in the activated carbon-treated water and the softening column-treated water were measured.

[4] = day 1, Example 10 (chloramine T 5 mg-Cl2/L) / Comparative Example 2 (NaClO 0.5 mg-Cl2/L), RO feed water pH 9.5
[5] = day 7, Example 10 (chloramine T 5 mg-Cl2/L) / Comparative Example 2 (NaClO 0.5 mg-Cl2/L), RO feed water pH 9.5
[6] = Example 1 (chloramine T, combined chlorine 5 mg-Cl2/L) / Comparative Example 1 (NaClO, free chlorine 0.5 mg-Cl2/L), SV 20 hr^-1
[7] = Example 10 (chloramine T, combined chlorine 5 mg-Cl2/L) / Comparative Example 2 (NaClO, free chlorine 0.5 mg-Cl2/L), wastewater TOC 20 mg/L, SV 20 hr^-1
[8] = Example 11, chloramine T added 0.5 mg-Cl2/L (combined chlorine), SV 20 hr^-1, wastewater
[9] = Example 12, chloramine T added 0.8 mg-Cl2/L (combined chlorine), SV 20 hr^-1, wastewater
[10] = Example 15, SV through activated carbon column 10 hr^-1, combined chlorine 1 mg-Cl2/L, wastewater
[11] = Example 16, SV through activated carbon column 15 hr^-1, combined chlorine 1 mg-Cl2/L, wastewater

Flux [1, 4]: 0.98 m^3/m^2 · day
Flux [1, 5]: 0.96 m^3/m^2 · day
SMILES: OCl [NaClO, sodium hypochlorite, reference compound]
Viable cells detected in the activated carbon-treated water (viable cells [2]; Comparative Example 1, free chlorine 0.5 mg-Cl2/L, SV 20 hr^-1): 10^3 viable cells per milliliter
Viable cell count, RO feed water (viable cells [2]; [6]): 4 × 10^3 cells/ml
Viable cell count, RO-concentrated water (viable cells [2]; [6]): 2 × 10^5 cells/ml
Viable cell count, activated carbon-treated water (viable cells [2]; [6]): 5 × 10^3 cells/ml
Viable cells detected in the activated carbon-treated water (viable cells [3]; Comparative Example 2, free chlorine 0.5 mg-Cl2/L, wastewater): 10^5 viable cells per milliliter
Viable cells detected in the softening column-treated water (viable cells [3]; Comparative Example 2, free chlorine 0.5 mg-Cl2/L, wastewater, sampled before the addition of the alkali): 10^6 viable cells per milliliter
Viable cell count, activated carbon-treated water (viable cells [3]; [7]): 10^5 cells/ml
Viable cell count, softened water (viable cells [3]; [7]): 10^6 cells/ml

SMILES: Cc1ccc(S(=O)(=O)[N-]Cl)cc1.[Na+] [Chloramine T, sodium N-chloro-p-toluenesulfonamide trihydrate]
Reduction in flux through the RO membrane separator ([1]; Example 10, chloramine T 5 mg-Cl2/L, RO feed water pH 9.5): no reduction in flux
Flux [1, 4]: 1.0 m^3/m^2 · day
Flux ([1]; day 1, Reference Example 1, chloramine T 5 mg-Cl2/L, RO feed water pH 6): 0.98 m^3/m^2 · day
Flux ([1]; day 1, Reference Example 2, chloramine T 5 mg-Cl2/L, RO feed water pH 8.5): 0.99 m^3/m^2 · day
Flux [1, 5]: 0.95 m^3/m^2 · day
Flux ([1]; day 7, Reference Example 1, chloramine T 5 mg-Cl2/L, RO feed water pH 6): 0.98 m^3/m^2 · day
Flux ([1]; day 7, Reference Example 2, chloramine T 5 mg-Cl2/L, RO feed water pH 8.5): 0.97 m^3/m^2 · day
Flux ([1]; day 30, Example 10 (chloramine T 5 mg-Cl2/L) / Comparative Example 2 (NaClO 0.5 mg-Cl2/L), RO feed water pH 9.5): 0.95 m^3/m^2 · day
Flux ([1]; day 30, Reference Example 1, chloramine T 5 mg-Cl2/L, RO feed water pH 6): 0.97 m^3/m^2 · day
Flux ([1]; day 30, Reference Example 2, chloramine T 5 mg-Cl2/L, RO feed water pH 8.5): 0.97 m^3/m^2 · day
Flux ([1]; day 60, Example 10 (chloramine T 5 mg-Cl2/L), RO feed water pH 9.5): 0.93 m^3/m^2 · day
Flux ([1]; day 90, Example 10 (chloramine T 5 mg-Cl2/L), RO feed water pH 9.5): 0.93 m^3/m^2 · day
Viable cells at all measuring points (viable cells [2]; Example 1, combined chlorine 5 mg-Cl2/L, SV 20 hr^-1): no viable cells were detected
Viable cell count in activated carbon-treated water (viable cells [2]; Example 2, combined chlorine in activated carbon feed water 0.5 mg/L, SV 20 hr^-1): 4 × 10^3 cells/ml
Viable cell count in activated carbon-treated water (viable cells [2]; Example 3, combined chlorine in activated carbon feed water 0.8 mg/L, SV 20 hr^-1): 5 × 10^3 cells/ml
Viable cell count in activated carbon-treated water (viable cells [2]; Example 6, SV through activated carbon column 10 hr^-1, combined chlorine 1 mg-Cl2/L): 9 × 10^3 cells/mil
Viable cell count in activated carbon-treated water (viable cells [2]; Example 7, SV through activated carbon column 15 hr^-1, combined chlorine 1 mg-Cl2/L): 2 × 10^3 cells/mil
Viable cells at all measuring points (viable cells [3]; Example 10, combined chlorine 5 mg-Cl2/L, wastewater, SV 20 hr^-1): no viable cells were detected
Viable cell count, activated carbon-treated water (viable cells [3]; [8]): 3 × 10^4 cells/ml
Viable cell count, softened water (viable cells [3]; [8]): 4 × 10^5 cells/ml
Viable cell count, activated carbon-treated water (viable cells [3]; [9]): 6 × 10^3 cells/ml
Viable cell count, softened water (viable cells [3]; [9]): 8 × 10^4 cells/ml
Viable cell count, activated carbon-treated water (viable cells [3]; [10]): 9 × 10^4 cells/ml
Viable cell count, softened water (viable cells [3]; [10]): 2 × 10^6 cells/ml
Viable cell count, activated carbon-treated water (viable cells [3]; [11]): 2 × 10^5 cells/ml
Viable cell count, softened water (viable cells [3]; [11]): 7 × 10^6 cells/ml
